Measured values from publication PMC9189929, “Synthesis, Screening and Characterization of Novel Potent Arp2/3 Inhibitory Compounds Analogous to CK-666” (Frontiers in Pharmacology, 2022).
Values after ≈ are worked out from the molar mass of the structure shown.

Columns and labels:
[1] = test system: MCF10A cells; test: EdU incorporation / cell cycle progression screen in MCF10A cells; format: cell-based, human; details: for Outcome of EdU incorporation screen: 0.025 to 100 μM; for IC50: Homo sapiens, MCF-10A, 18 h treatment, rough values from Figure 1 graphs, read-out: IC50 (concentration required for 50% decrease of EdU-positive cells)
Method: For cell cycle progression using EdU, MCF10A cells were seeded in 384-well plates at a density of 800 cells per well. […] EdU from kit C10337 (ThermoFischer Scientific, Waltham, MA, United States) was then added to the cells at 10 μM and incubated for 2.5 h. Cells were fixed in 4% paraformaldehyde for 30 min at room temperature. Click-iT reaction was performed for 1 h at room temperature, protected from light, with 5 µM Alexa Fluor 488 azide in (100 mM Tris, 1 mM CuSO4, 50 mM Ascorbic Acid, pH 8.5). Nuclei were counterstained with Hoechst 33,342 (Thermo Fisher Scientific). Imaging and analysis were performed using the ImageXpress Micro XL High-Content Screening System (Molecular Devices LLC, San Jose, CA, United States). IC50 values were determined by sigmoidal curve fitting using GraphPad Prism six software.

[2] = test system: B16-F1 cells; test: Cell viability (MTS) of B16-F1 cells; format: cell-based, mouse; details: 100 μM, 4 h
Method: Cell viability was assessed using the CellTiter 96® AQueous One Solution Cell Proliferation kit (Promega) on a Multiscan Spectrum spectrophotometer (Thermo LifeSciences), with absorbance read at 490 nm.

[3] = test system: B16-F1 cells; test: Lamellipodium formation in B16-F1 cells (cortactin immunofluorescence); format: cell-based, mouse
Method: Lyophilized compounds were resuspended with fresh DMSO from sealed vials (cell biology grade). Compounds, stored at +4°C, were used within a week. B16-F1 cells were seeded onto glass coverslips coated for 1 h with 25 μg/ml laminin (Sigma) in (50 mM Tris, 150 mM NaCl, pH 7.4). […] Cell were then processed for immunofluorescence.
Cells were fixed in 3.2% PFA on PBS, then quenched with 50 mM NH4Cl and permeabilised with 0.5% Triton X-100. After blocking in 2% BSA cells were incubated with antibodies (1–5 μg/ml for the primary, 5 μg/ml for the secondary). Total actin in cells was visualized by phalloidin staining. Nuclei were stained with 0.3 μg/ml DAPI (Roche). Coverslips were mounted in Dako Fluorescence Mounting Medium (Agilent). For immunofluorescence, ARPC2 rabbit polyclonal antibody (Millipore, 07–227), Cortactin mouse monoclonal 4F11 (Millipore, 05–180) were used. Secondary goat anti-mouse and anti-rabbit antibodies conjugated with Alexa Fluor 555 and 647 respectively were from Life Technologies. Phalloidin conjugated with Alexa Fluor 488 was from Tebu-bio.
(§1) Image analysis was performed in ImageJ or FIJI software. To measure wound healing, boundaries of the wound were drawn manually at different time points, then wound size was measured.

[4] = test system: B16-F1 cells; test: Wound healing (cell migration) of B16-F1 cells; format: cell-based, mouse
Method: For the wound healing, B16-F1 cells were seeded onto 8-well Ibidi dishes coated with laminin, and grown to confluence. Wounds in the cell monolayer were obtained by scratching the monolayer with a pipet tip. Detached cells were immediately washed away and new medium containing the various compounds was added. Cells were then used for videomicroscopy.
Videomicroscopy was performed on an inverted Axio Observer microscope (Zeiss) equipped with a Pecon Zeiss incubator XL multi S1 RED LS (Heating Unit XL S, Temp module, CO2 module, Heating Insert PS and CO2 cover), Definite focus module and a Hamamatsu camera C10600 Orca-R2. Phase contrast images were taken every 30 min for 24 h using the 10X/0.25 Plan-Apochromat air objective. For immunofluorescence, slides were observed and imaged with the 63X/1.4 Plan-Apochromat oil objective. Fluorophores were excited with the HBO 100 W lamp (Osram) installed in the HXP 120 Metal halide fluorescence light source (Zeiss).
as §1

[5] = target: T1, Arp2/3 (Bos taurus, UniProt A7MB62+P61157); test: Pyrene-actin polymerization assay; format: biochemical, bovine; details: 20 nM Arp2/3, 250 nM N-WASP VCA; for IC50: 1.5 μM actin (10% pyrenyl-labeled), read-out: IC50 of Arp2/3-mediated actin polymerization; for Arp2/3 inhibition reached at saturation: 1.5 μM actin
T1 construct: purchased Cytoskeleton, Inc
Method: Actin was purified from rabbit muscle and was pyrenyl-labeled ([Carlier et al., 1984]; [Malm, 1984]). Arp2/3 was from Cytoskeleton, Inc. VCA domain of N-WASP was purified as previously described ([Clainche et al., 2003]). Pyrene-actin polymerization assays were performed as previously ([Romero et al., 2007]). Briefly, CaATP-actin was converted into MgATP-actin in (5 mM Tris, 0.2 mM ATP, 0.1 mM CaCl2, 1 mM DTT, 1 mM MgCl2, and 0.2 mM EGTA, pH 7.6) and kept on ice for no more than 1 h. Actin polymerization was monitored in (5 mM Tris, 50 mM KCl, 0.2 mM ATP, 0.1 mM CaCl2, 1 mM DTT, 1 mM MgCl2, 0.2 mM EGTA, pH 7.6) in the presence of 2% DMSO alone or 2% DMSO containing the appropriated compound concentration. The increase in fluorescence of 10% pyrenyl-labeled actin was monitored using a Safas spectrofluorimeter (λexc = 366 nm, λem = 407 nm). The maximum rate of actin polymerization was derived from the maximum slope of the polymerization curve multiplied by [total polymer]/(RFUmax—RFUmin) [total polymer] is the total actin minus the critical concentration (0.1 μM) and RFU, Relative Fluorescence Unit. The maximum elongation rates of actin polymerization were plotted as a function of the concentration of the different compounds. For CK-666, 59, 69 and 71, curves were fitted with the following equation to determine the IC50. Mrate= Rmax−Rmax−Rmin/1+IC50/(Compound Conc.) where Mrate is the measured maximum rate of actin polymerization at a given compound concentration, Rmax is the maximum rate of actin polymerization with no compound, and Rmin is the maximum rate of actin polymerization at saturating concentration of compound.
The curve of compound 15 was fitted with a linear decay. The IC50 was determined at half inhibition of actin polymerization.

[6] = test system: sea urchin embryos; test: Sea urchin embryo development assay; format: in vivo, Paracentrotus lividus; details: for Effect on archenteron elongation / Effect on primary mesenchyme cell (PMC) migration: observed up to four-arm mid-pluteus stage; for Minimum effective concentration, Inhibition of Archenteron elongation / Minimum effective concentration, Inhibition of Spicule formation: treated at zygote stage, monitored to four-arm pluteus
Method: The procedure was described in detail in [Semenova et al., 2018]. Briefly, adult sea urchins, Paracentrotus lividus L (Echinidae), were collected from the Mediterranean Sea on the Cyprus coast and kept in an aerated seawater tank. Gametes were obtained by intracoelomic injection of 0.5 M KCl. Eggs were washed with filtered seawater and fertilized by adding drops of diluted sperm. Embryos were cultured at room temperature under gentle agitation with a motor-driven plastic paddle (60 rpm) in filtered seawater. […] For treatment with test compounds, 5 ml aliquots of embryo suspension were transferred to six-well plates and incubated at a concentration of 1,000–2,000 embryos/ml. For images, sedimented embryos were concentrated in the center of the well by gentle rotation of the culture plate, and 200 μl aliquots containing several hundred embryos were used to take pictures (up to 20 images from different fields). Embryos selected for Figure 4 were representative of the population.
(§2) Stock solutions of compounds were prepared in DMSO at 50–250 mM concentration followed by a 10-fold dilution with 96% EtOH. This procedure enhanced the solubility of the test compounds in the salty seawater. Maximal tolerated concentrations of DMSO and EtOH in the assay were determined to be 0.05 and 1%, respectively. Higher concentrations of either DMSO (>0.1%) or EtOH (>1%) caused nonspecific alterations and retardation of the sea urchin embryo development independent of the treatment stage. Maximum solubility of compounds 15, 59, 69, and 71 was about 5–20 mM in seawater, since visible crystals formed at higher concentrations.
The effects were assessed after exposure of fertilized eggs (8–15 min post fertilization, 45–55 min before the first mitotic cycle completion) to 2-fold decreasing concentrations of the compound. Embryonic development was monitored until the beginning of active feeding at four-arm pluteus stage (33–36 h postfertilization). Developmental abnormalities were estimated quantitatively as minimal effective concentration (MEC), resulting in inhibition of archenteron elongation or skeletal spicule formation.

[7] = test system: Arp2/3; details: introduction statement, no reference given; read-out: IC50 of inhibition of Arp2/3 activation; cited from earlier work
[8] = test system: sea urchin embryos; parameters: method as in Sepúlveda-ramírez et al., 2018; details: 100 μM; ref Sepúlveda-ramírez et al., 2018; cited from earlier work
[9] = test system: fish keratocytes; parameters: method as in Nolen et al., 2009; details: ref Nolen et al., 2009; cited from earlier work
[10] = Maximum solubility in seawater; format: physicochemical; details: saline or isotonic, kinetic from dmso stock, visible crystals formed at higher concentrations
Method: as §2

Row | Structure (SMILES) | Outcome of EdU incorporation screen [1] | IC50 [1] | Toxicity to B16-F1 cells (viability, MTS) [2] | IC50 [5] | Arp2/3 inhibition reached at saturation [5] | Effect on archenteron elongation [6] | Effect on primary mesenchyme cell (PMC) migration [6] | Minimum effective concentration, Inhibition of Archenteron elongation [6] | Minimum effective concentration, Inhibition of Spicule formation [6] | other results
1 | Cc1[nH]c2ccc(F)cc2c1CCNC(=O)c1cc(S(=O)(=O)N(C)C)c(Cl)cc1Cl [Compound 64, 2,4-Dichloro-5-[(dimethylamino)sulfonyl]-N-[2-(5-fluoro-2-methyl-1H-indol-3-yl)ethyl]benzamide] | scored positive | 6.66 µM | reduced the cell population by half or more |  |  |  |  |  |  | 
2 | Cc1[nH]c2ccccc2c1CCNC(=O)c1ccccc1F [CK-666, 2-Fluoro-N-[2-(2-methyl-1H-indol-3-yl)ethyl]benzamide] |  | 56.3 µM |  | 23 µM | 78% | inhibited elongation of the archenteron at approximately half-size | altered PMC migration resulting in the lack of ventrolateral clusters and spicules | 50 µM | 25 µM | Inhibition of lamellipodium formation ([3]; 100 μM, 1 h): blocked lamellipodium formation almost completely; Inhibition of wound healing ([4]; 100 µM): inhibits wound healing; Developmental phenotype ([6]; 100 μM, 22°C): Defective gastrulation; Effect on cleavage and embryo spinning (antimitotic microtubule destabilizing effects) ([6]; up to 20–50 μM): did not affect cleavage and did not induce embryo spinning; IC50 [7]: ~50 µM; Effect on PMC migration and spiculogenesis [8]: alters proper migration of PMC and formation of ventrolateral clusters with ensuing inhibition of spiculogenesis; Inhibition of migration of fish keratocytes [9]: unable to inhibit the migration of fish keratocytes
3 | Cc1[nH]c2ccc(OCc3ccccc3)cc2c1CCNC(=O)c1cccc(Br)c1 [Compound 59, N-{2-[5-(Benzyloxy)-2-methyl-1H-indol-3-yl]ethyl}-3-bromobenzamide] | scored positive | 11.5 µM |  | 180 µM | saturation was not reached | inhibited elongation of the archenteron at approximately half-size | altered PMC migration resulting in the lack of ventrolateral clusters and spicules | 10 µM | 5 µM | Dose-dependent inhibition of lamellipodium formation, potency relative to CK-666 ([3]; dose-dependent assay (Figure 2D)): slightly less active than CK-666; Cell rounding and detachment in wound healing assay ([4]; 25 µM): not observed; Cell rounding and detachment in wound healing assay ([4]; 100 µM): to a lesser extent 59 induced cell rounding followed by detachment from the substrate; Inhibition of cell migration (wound healing) compared with 100 µM CK-666 ([4]; compound at 25 µM): more active than CK-666; solubility [10]: 5 to 20 µM (≈ 2.32 to 9.27 µg/mL)
4 | Cc1[nH]c2ccc(OC(F)(F)F)cc2c1CCNC(=O)c1ccc(S(=O)(=O)N(CCCl)CCCl)cc1 [Compound 52, 4-{[Bis(2-chloroethyl)amino]sulfonyl}-N-{2-[2-methyl-5-(trifluoromethoxy)-1H-indol-3-yl]ethyl}benzamide] | scored positive | 3.17 µM | reduced the cell population by half or more |  |  |  |  |  |  | 
